Measurements reported in patent publication US9314026B2, “Heterocyclylpyri(mi)dinylpyrazole” (Bayer Intellectual Property GmbH, priority 2011, dated 2016).
Like-named read-outs stand apart in the source and are kept apart here.

Assay: determination of the log P values by HPLC on a reverse phase column (C18), EEC-Directive 79/831 Annex V.A8
Format: physicochemical
Protocol: Method A Note on the determination of the log P values and mass detection: The stated log P values were determined in accordance with EEC-Directive 79/831 Annex V.A8 by HPLC (High Performance Liquid Chromatography) on a reverse phase column (C18). […] The mass detection was effected with an […] system. Method B Note on the determination of the log P values and mass detection: The stated log P values were determined in accordance with EEC-Directive 79/831 Annex V.A8 by HPLC (High Performance Liquid Chromatography) on a reverse phase column (C18). […] The mass detection was effected with the Micronass ZQ2000 mass detector from Waters. Method C Note on the determination of the log P values and mass detection: The stated log P values were determined in accordance with EEC-Directive 79/831 Annex V.A8 by UPLC (Ultra Performance Liquid Chromatography) on a reverse phase column (C18). […] The mass detection was effected with the LCT Premier or SQD mass detector from Waters.

Compound | chromatographic logP (pH 2.7) | chromatographic logP (pH 2.3) | further results
3-iodo-5-methyl-2-phenyl-5,6-dihydro-4H-pyrrolo[1,2-b]pyrazole [[IV-7]] | – | – | LogP (pH 2.3) (pH 2.3, compounds of the type [IV]): 3.74; log P (pH 2.5) (pH 2.5, preparation examples in the text): 3.74
O=C(C1CC1)N(C(=O)C1CC1)c1cc(-c2c(-c3ccc(F)cc3)nn3c2CCCC3)ccn1 [Example 14, N-(cyclopropylcarbonyl)-N-{4-[2-(4-fluorophenyl)-4,5,6,7-tetrahydropyrazolo[1,5-a]pyridin-3-yl]pyridin-2-yl}cyclopropanecarboxamide] | 3.28 | – | LogPA (Method A (HPLC, C18, acetonitrile/water with formic acid), compounds of the type [I]): 3.28
COC(=O)N(C(=O)C1CC1)c1cc(-c2c(-c3ccc(F)cc3)nn3c2CCC3)ccn1 [Example 15, methyl (cyclopropylcarbonyl){4-[2-(4-fluorophenyl)-5,6-dihydro-4H-pyrrolo[1,2-b]pyrazol-3-yl]pyridin-2-yl}carbamate] | – | – | chromatographic logP: 2.54
CCC(=O)N(C(=O)CC)c1cc(-c2c(-c3ccc(F)cc3)nn3c2CCC3C)ccn1 (centres unmarked) [Example 16, N-{4-[2-(4-fluorophenyl)-6-methyl-5,6-dihydro-4H-pyrrolo[1,2-b]pyrazol-3-yl]pyridin-2-yl}-N-propionylpropanamide] | – | – | chromatographic logP: 3.21
CCC(=O)N(C(=O)C1CC1)c1cc(-c2c(-c3ccc(F)cc3)nn3c2CCCC3)ccn1 [Example 17, N-{4-[2-(4-fluorophenyl)-4,5,6,7-tetrahydropyrazolo[1,5-a]pyridin-3-yl]pyridin-2-yl}-N-propionylcyclopropanecarboxamide] | – | – | chromatographic logP: 3.22
CCC(=O)N(C(=O)CC)c1cc(-c2c(-c3ccc(F)cc3)nn3c2CCCC3)ccn1 [Example 18, N-{4-[2-(4-fluorophenyl)-4,5,6,7-tetrahydropyrazolo[1,5-a]pyridin-3-yl]pyridin-2-yl}-N-propionylpropanamide] | – | – | chromatographic logP: 3.18
Nc1cc(-c2c(-c3ccc(F)cc3)nn3c2CCC3)ccn1 [[II-1], 4-[2-(4-fluorophenyl)-5,6-dihydro-4H-pyrrolo[1,2-b]pyrazol-3-yl]pyridin-2-amine] | 1.02 | 1.02 | –
Nc1cc(-c2c(-c3ccc(F)c(Cl)c3)nn3c2CCC3)ccn1 [[II-2], 4-[2-(3-chloro-4-fluorophenyl)-5,6-dihydro-4H-pyrrolo[1,2-b]pyrazol-3-yl]pyridin-2-amine] | 1.28 | 1.28 | –
Nc1cc(-c2c(-c3ccc(F)c(F)c3)nn3c2CCC3)ccn1 [[II-3], 4-[2-(3,4-difluorophenyl)-5,6-dihydro-4H-pyrrolo[1,2-b]pyrazol-3-yl]pyridin-2-amine] | 1.08 | 1.08 | –
CC1(C)OB(c2c(-c3ccc(F)cc3)nn3c2CCC3)OC1(C)C [[III-1], 2-(4-fluorophenyl)-3-(4,4,5,5-tetramethyl-1,3,2-dioxaborolan-2-yl)-5,6-dihydro-4H-pyrrolo[1,2-b]pyrazole] | 3.97 | – | –
CC1(C)OB(c2c(-c3ccc(F)c(F)c3)nn3c2CCC3)OC1(C)C [[III-2], 2-(3,4-difluorophenyl)-3-(4,4,5,5-tetramethyl-1,3,2-dioxaborolan-2-yl)-5,6-dihydro-4H-pyrrolo[1,2-b]pyrazole] | 4.3 | – | –
CC1(C)OB(c2c(-c3ccc(F)c(Cl)c3)nn3c2CCC3)OC1(C)C [[III-3], 2-(3-chloro-4-fluorophenyl)-3-(4,4,5,5-tetramethyl-1,3,2-dioxaborolan-2-yl)-5,6-dihydro-4H-pyrrolo[1,2-b]pyrazole] | 4.73 | – | –
Fc1ccc(-c2nn3c(c2Br)CCC3)cc1 [[IV-1], 3-bromo-2-(4-fluorophenyl)-5,6-dihydro-4H-pyrrolo[1,2-b]pyrazole] | – | 3.21 | chromatographic logP (pH 7): 3.21
Fc1ccc(-c2nn3c(c2Br)CCC3)cc1F [[IV-2], 3-bromo-2-(3,4-difluorophenyl)-5,6-dihydro-4H-pyrrolo[1,2-b]pyrazole] | – | 3.54 | chromatographic logP (pH 2.5): 3.54
Fc1ccc(-c2nn3c(c2Br)CCC3)cc1Cl [[IV-3], 3-bromo-2-(3-chloro-4-fluorophenyl)-5,6-dihydro-4H-pyrrolo[1,2-b]pyrazole] | – | 4.01 | chromatographic logP (pH 2.5): 4.01
